Experimental data as given in ChEMBL document CHEMBL4219066, “Identification and Mitigation of Reactive Metabolites of 2-Aminoimidazole-Containing Microsomal Prostaglandin E Synthase-1 Inhibitors Terminated Due to Clinical Drug-Induced Liver Injury” (J Med Chem, 2018).

Tests used:
Format in all cases: ADME, cell-based, Hepatocyte
[1] = Drug metabolism in human hepatocytes assessed as N-carbamimidoyl-2-chloro-5-(pivalamidomethyl)benzamide formation at 2 uM after 4 hrs by LC-MS/MS analysis
[2] = Drug metabolism in rat hepatocytes assessed as N-carbamimidoyl-2-chloro-5-(pivalamidomethyl)benzamide formation at 2 uM after 4 hrs by LC-MS/MS analysis
[3] = Drug metabolism in rat hepatocytes assessed as 2-chloro-N-(4-(hydroxymethyl)-1H-imidazol-2-yl)-5-(pivalamidomethyl)benzamide formation at 2 uM after 4 hrs by LC-MS/MS analysis
[4] = Drug metabolism in human hepatocytes assessed as 2-chloro-5-((3-hydroxy-2,2-dimethylpropanamido)methyl)-N-(4-methyl-1H-imidazol-2-yl)benzamide formation at 2 uM after 4 hrs by LC-MS/MS analysis
[5] = Drug metabolism in rat hepatocytes assessed as 2-chloro-5-((3-hydroxy-2,2-dimethylpropanamido)methyl)-N-(4-methyl-1H-imidazol-2-yl)benzamide formation at 2 uM after 4 hrs by LC-MS/MS analysis
[6] = Drug metabolism in human hepatocytes assessed as 2-chloro-N-(4-(hydroxymethyl)-1H-imidazol-2-yl)-5-(pivalamidomethyl)benzamide formation at 2 uM after 4 hrs by LC-MS/MS analysis
[7] = Drug metabolism in human hepatocytes assessed as 2-chloro-N-(4-cyano-1H-imidazol-2-yl)-5-((3-hydroxy-2,2-dimethylpropanamido)methyl)benzamide formation at 2 uM after 4 hrs by LC-MS/MS analysis
[8] = Drug metabolism in rat hepatocytes assessed as 2-chloro-N-(4-cyano-1H-imidazol-2-yl)-5-((3-hydroxy-2,2-dimethylpropanamido)methyl)benzamide formation at 2 uM after 4 hrs by LC-MS/MS analysis
[9] = Drug metabolism in human hepatocytes assessed as metabolite M2 formation at 2 uM after 4 hrs by LC-MS/MS analysis
[10] = Drug metabolism in rat hepatocytes assessed as 2-(2-chloro-5-(pivalamidomethyl)benzamido)-1H-imidazole-4-carboxylic acid formation at 2 uM after 4 hrs by LC-MS/MS analysis
[11] = Drug metabolism in rat hepatocytes assessed as metabolite M2 formation at 2 uM after 4 hrs by LC-MS/MS analysis
[12] = Drug metabolism in human hepatocytes assessed as 2-(2-chloro-5-(pivalamidomethyl)benzamido)-1H-imidazole-4-carboxylic acid formation at 2 uM after 4 hrs by LC-MS/MS analysis
[13] = Drug metabolism in rat hepatocytes assessed as 2-(2-chloro-5-((3-hydroxy-2,2-dimethylpropanamido)methyl)benzamido)-N-phenyl-1H-imidazole-4-carboxamide at 2 uM after 4 hrs by LC-MS/MS analysis
[14] = Drug metabolism in rat hepatocytes assessed as 2-chloro-5-(pivalamidomethyl)benzoic acid formation at 2 uM after 4 hrs by LC-MS/MS analysis
[15] = Drug metabolism in human hepatocytes assessed as 2-(2-chloro-5-((3-hydroxy-2,2-dimethylpropanamido)methyl)benzamido)-N-phenyl-1H-imidazole-4-carboxamide formation at 2 uM after 4 hrs by LC-MS/MS analysis
[16] = Drug metabolism in human hepatocytes assessed as 2-chloro-5-(pivalamidomethyl)benzoic acid formation at 2 uM after 4 hrs by LC-MS/MS analysis
[17] = Drug metabolism in rat hepatocytes assessed as 2-chloro-N-(4,5-dimethyl-1H-imidazol-2-yl)-5-((3-hydroxy-2,2-dimethylpropanamido)methyl)benzamide formation at 2 uM after 4 hrs by LC-MS/MS analysis
[18] = Drug metabolism in rat hepatocytes assessed as 2-chloro-N-(4-(hydroxymethyl)-5-methyl-1H-imidazol-2-yl)-5-(pivalamidomethyl)benzamide formation at 2 uM after 4 hrs by LC-MS/MS analysis
[19] = Drug metabolism in human hepatocytes assessed as 2-chloro-N-(4-(hydroxymethyl)-5-methyl-1H-imidazol-2-yl)-5-(pivalamidomethyl)benzamide formation at 2 uM after 4 hrs by LC-MS/MS analysis
[20] = Drug metabolism in human hepatocytes assessed as 2-chloro-N-(4,5-dimethyl-1H-imidazol-2-yl)-5-((3-hydroxy-2,2-dimethylpropanamido)methyl)benzamide formation at 2 uM after 4 hrs by LC-MS/MS analysis

Measured: Drug metabolism

Cc1c[nH]c(NC(=O)c2cc(CNC(=O)C(C)(C)C)ccc2Cl)n1
Metabolite_Detected: [1] | [2] | [3] | [4] | [5] | [6]

CC(C)(C)C(=O)NCc1ccc(Cl)c(C(=O)Nc2nc(C#N)c[nH]2)c1
Metabolite_Detected: [7] | [8]

CC(C)(C)C(=O)NCc1ccc(Cl)c(C(=O)Nc2nc(C(=O)Nc3ccccc3)c[nH]2)c1
Metabolite_Detected: [9] | [10] | [11] | [12] | [13] | [14] | [15] | [16]

Cc1nc(NC(=O)c2cc(CNC(=O)C(C)(C)C)ccc2Cl)[nH]c1C
Metabolite_Detected: [17] | [1] | [2] | [18] | [19] | [20]
